Reference: patent publication US11304949B2, “Treatment of hidradenitis suppurativa using JAK inhibitors” (Incyte Corporation, priority 2018, dated 2022)

Tests used:
[1] = test system: Transformed human keratinocyte (HaCaT) cells stimulated with TNFα and IFNγ; experiment: JAK inhibitors in TNFα/IFNγ stimulated keratinocytes, gene expression (QuantiGene Plex); conditions: 24 hours, normalized to HPRT1, mean ± standard error
[2] = molecular target: human JAK1 (a.a. 837-1142) (Homo sapiens, UniProt P23458); experiment: In vitro JAK kinase assay (HTRF), JAK1; type: biochemical; conditions: 1 mM ATP
[3] = test system: human JAK1 (a.a. 837-1142); experiment: In vitro JAK kinase assay (HTRF), JAK1; type: biochemical; conditions: IC50 ratio at 1 mM ATP
[4] = test system: Transformed human keratinocyte (HaCaT) cells stimulated with TNFα and IFNγ; experiment: JAK inhibitors in TNFα/IFNγ stimulated keratinocytes, inflammatory mediators in media (ProCarta Multiplex Immunoassay); conditions: mean ± 1 standard error
[5] = TNFα (25 ng/mL) and IFNγ (25 ng/mL), drug 25 nM
[6] = TNFα (25 ng/mL) and IFNγ (25 ng/mL), drug 50 nM
[7] = TNFα (25 ng/mL) and IFNγ (25 ng/mL), drug 100 nM
[8] = TNFα (25 ng/mL) and IFNγ (25 ng/mL), drug 200 nM
[9] = TNFα (25 ng/mL) and IFNγ (25 ng/mL) stimulation, drug 25 nM
[10] = TNFα (25 ng/mL) and IFNγ (25 ng/mL) stimulation, drug 50 nM
[11] = TNFα (25 ng/mL) and IFNγ (25 ng/mL) stimulation, drug 100 nM
[12] = TNFα (25 ng/mL) and IFNγ (25 ng/mL) stimulation, drug 200 nM

N#CCC1(n2cc(-c3ncnc4[nH]ccc34)cn2)CN(C2CCN(C(=O)c3ccnc(C(F)(F)F)c3F)CC2)C1 [Compound 1, {1-{1-[3-Fluoro-2-(trifluoromethyl)isonicotinoyl]piperidin-4-yl}-3-[4-(7H-pyrrolo[2,3-d]pyrimidin-4-yl)-1H-pyrazol-1-yl]azetidin-3-yl}acetonitrile]
IL-1α MFI [1, 5]: 1288.02 ± 20 | IL-6 MFI [1, 5]: 130.24 ± 3.84 | JAK1 MFI [1, 5]: 216.23 ± 6.41 | JAK2 MFI [1, 5]: 109.39 ± 2.8 | JAK3 MFI [1, 5]: 0.84 ± 0.12 | STAT1 MFI [1, 5]: 2868.69 ± 202.69 | STAT3 MFI [1, 5]: 1466.73 ± 66.75 | STAT4 MFI [1, 5]: 6.00 ± 0.46 | STAT5A MFI [1, 5]: 23.69 ± 1.63 | STAT6 MFI [1, 5]: 1004.82 ± 23.76 | TYK2 MFI [1, 5]: 292.92 ± 7.99 | IL-1α MFI [1, 6]: 1258.76 ± 23.63 | IL-6 MFI [1, 6]: 122.69 ± 4.36 | JAK1 MFI [1, 6]: 210.42 ± 10.89 | JAK2 MFI [1, 6]: 101 ± 2.26 | JAK3 MFI [1, 6]: 0.83 ± 0.15 | STAT1 MFI [1, 6]: 2862.58 ± 163.98 | STAT3 MFI [1, 6]: 1437.28 ± 60.69 | STAT4 MFI [1, 6]: 6.22 ± 0.42 | STAT5A MFI [1, 6]: 22.32 ± 2.16 | STAT6 MFI [1, 6]: 990.05 ± 21.06 | TYK2 MFI [1, 6]: 287.31 ± 11.08 | IL-1α MFI [1, 7]: 1162.35 ± 23.34 | IL-6 MFI [1, 7]: 111.07 ± 4.74 | JAK1 MFI [1, 7]: 205.03 ± 11.49 | JAK2 MFI [1, 7]: 94.5 ± 2.65 | JAK3 MFI [1, 7]: 0.92 ± 0.13 | STAT1 MFI [1, 7]: 2790.32 ± 176.4 | STAT3 MFI [1, 7]: 1373.34 ± 55.51 | STAT4 MFI [1, 7]: 6.21 ± 0.48 | STAT5A MFI [1, 7]: 20.87 ± 2.1 | STAT6 MFI [1, 7]: 987.64 ± 15.75 | TYK2 MFI [1, 7]: 284.15 ± 9.62 | IL-1α MFI [1, 8]: 1126.94 ± 26.22 | IL-6 MFI [1, 8]: 93.03 ± 3.25 | JAK1 MFI [1, 8]: 195.97 ± 10.45 | JAK2 MFI [1, 8]: 89.16 ± 3.43 | JAK3 MFI [1, 8]: 0.79 ± 0.15 | STAT1 MFI [1, 8]: 2857.2 ± 174.57 | STAT3 MFI [1, 8]: 1400.77 ± 58.44 | STAT4 MFI [1, 8]: 6.27 ± 0.56 | STAT5A MFI [1, 8]: 19.2 ± 1.94 | STAT6 MFI [1, 8]: 985.17 ± 29.31 | TYK2 MFI [1, 8]: 277.52 ± 8.67 | IL-1α MFI ([1]; no stimulation, drug 200 nM): 85.16 ± 6.50 | IL-6 MFI ([1]; no stimulation, drug 200 nM): 4.97 ± 0.36 | JAK1 MFI ([1]; no stimulation, drug 200 nM): 171.53 ± 9.49 | JAK2 MFI ([1]; no stimulation, drug 200 nM): 25.21 ± 1.12 | JAK3 MFI ([1]; no stimulation, drug 200 nM): 0.63 ± 0.10 | STAT1 MFI ([1]; no stimulation, drug 200 nM): 535.07 ± 22.13 | STAT3 MFI ([1]; no stimulation, drug 200 nM): 732.19 ± 23.03 | STAT4 MFI ([1]; no stimulation, drug 200 nM): 4.01 ± 0.45 | STAT5A MFI ([1]; no stimulation, drug 200 nM): 1.44 ± 0.41 | STAT6 MFI ([1]; no stimulation, drug 200 nM): 740.11 ± 34.98 | TYK2 MFI ([1]; no stimulation, drug 200 nM): 217.28 ± 10.09 | IC50 [2]: < 10 nM | JAK2/JAK1 [3]: >10 | IL-1α concentration in media [4, 9]: 7.34 ± 0.31 pg/mL | IL-6 concentration in media [4, 9]: 749.64 ± 32.94 pg/mL | IP-10/CXCL10 concentration in media [4, 9]: 4068.98 ± 507.12 pg/mL | MIP1α concentration in media [4, 9]: 103.81 ± 3.29 pg/mL | RANTES concentration in media [4, 9]: 203.77 ± 12.55 pg/mL | IL-1α concentration in media [4, 10]: 7.06 ± 0.37 pg/mL | IL-6 concentration in media [4, 10]: 674.21 ± 27.15 pg/mL | IP-10/CXCL10 concentration in media [4, 10]: 3872.74 ± 295.01 pg/mL | MIP1α concentration in media [4, 10]: 100.64 ± 4.66 pg/mL | RANTES concentration in media [4, 10]: 198.35 ± 15.1 pg/mL | IL-1α concentration in media [4, 11]: 7 ± 0.41 pg/mL | IL-6 concentration in media [4, 11]: 643.8 ± 27.14 pg/mL | IP-10/CXCL10 concentration in media [4, 11]: 4050.7 ± 471.31 pg/mL | MIP1α concentration in media [4, 11]: 91.52 ± 5.05 pg/mL | RANTES concentration in media [4, 11]: 194.21 ± 12.67 pg/mL | IL-1α concentration in media [4, 12]: 6.16 ± 0.35 pg/mL | IL-6 concentration in media [4, 12]: 568.73 ± 24.74 pg/mL | IP-10/CXCL10 concentration in media [4, 12]: 4071.78 ± 411.22 pg/mL | MIP1α concentration in media [4, 12]: 83.1 ± 2.77 pg/mL | RANTES concentration in media [4, 12]: 183.18 ± 13.92 pg/mL | IL-1α concentration in media ([4]; no stimulation, drug 200 nM): 0.29 ± 0.03 pg/mL | IL-6 concentration in media ([4]; no stimulation, drug 200 nM): 28.49 ± 2.89 pg/mL | IP-10/CXCL10 concentration in media ([4]; no stimulation, drug 200 nM): 19.83 ± 0.40 pg/mL | MIP1α concentration in media ([4]; no stimulation, drug 200 nM): 2.75 ± 0.26 pg/mL | RANTES concentration in media ([4]; no stimulation, drug 200 nM): 8.42 ± 0.51 pg/mL
